Among the data in ChEMBL document CHEMBL4020826 (J Med Chem, 2018) are Ki, EC50 and IC50 values, retold here.

Some results are limits rather than exact numbers.

Assay [1] concerns the target T1, Metabotropic glutamate receptor 2 (Homo sapiens, UniProt Q14416). Description: Displacement of [3H]-LY459477 from recombinant human mGlu2 receptor expressed in HEK cell membranes after 90 mins by liquid scintillation counting.
The target in assay [2] is T1, Metabotropic glutamate receptor 2. Briefly: Agonist activity at human mGlu2 receptor expressed in HEK cells assessed as inhibition of forskolin-stimulated cAMP formation after 20 mins by HTRF assay. The format is functional, cell-based.
The target of assay [3] is T2, Metabotropic glutamate receptor 3 (Homo sapiens, UniProt Q14832).
T2 sequence (Q14832 whole entry): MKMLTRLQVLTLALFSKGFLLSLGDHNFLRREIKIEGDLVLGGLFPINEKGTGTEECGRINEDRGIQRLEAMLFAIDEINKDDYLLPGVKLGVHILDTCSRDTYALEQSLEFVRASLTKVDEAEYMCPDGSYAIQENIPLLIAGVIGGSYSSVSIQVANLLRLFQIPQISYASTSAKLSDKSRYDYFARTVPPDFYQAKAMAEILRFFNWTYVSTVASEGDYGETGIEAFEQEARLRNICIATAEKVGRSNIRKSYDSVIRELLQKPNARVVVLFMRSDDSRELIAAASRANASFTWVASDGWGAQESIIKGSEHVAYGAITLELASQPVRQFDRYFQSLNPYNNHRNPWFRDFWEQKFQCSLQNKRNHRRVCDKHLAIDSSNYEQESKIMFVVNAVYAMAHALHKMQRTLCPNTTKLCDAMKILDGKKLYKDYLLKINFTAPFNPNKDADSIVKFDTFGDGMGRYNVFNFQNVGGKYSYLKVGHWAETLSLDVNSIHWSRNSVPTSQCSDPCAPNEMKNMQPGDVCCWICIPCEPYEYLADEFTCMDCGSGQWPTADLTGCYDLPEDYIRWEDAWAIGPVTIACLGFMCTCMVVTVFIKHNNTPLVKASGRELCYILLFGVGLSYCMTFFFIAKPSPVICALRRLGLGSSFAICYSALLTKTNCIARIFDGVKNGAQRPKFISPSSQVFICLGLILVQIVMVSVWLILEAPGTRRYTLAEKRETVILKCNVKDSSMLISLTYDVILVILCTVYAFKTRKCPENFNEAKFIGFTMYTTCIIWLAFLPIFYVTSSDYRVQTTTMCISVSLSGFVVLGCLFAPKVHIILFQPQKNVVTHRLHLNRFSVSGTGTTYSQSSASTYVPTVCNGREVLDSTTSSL
Description: Agonist activity at human mGlu3 receptor expressed in HEK cells assessed as inhibition of forskolin-stimulated cAMP formation after 20 mins by HTRF assay
In assay [4] the target is T2, Metabotropic glutamate receptor 3. Briefly: biochemical.
Description: Displacement of [3H]-LY459477 from recombinant human mGlu3 receptor expressed in HEK cell membranes after 90 mins by liquid scintillation counting
Assay [5] deals with T1, Metabotropic glutamate receptor 2. Description: Antagonist activity at human mGlu2 receptor expressed in HEK cells assessed as reversal of DCG-4 inhibited forskolin-stimulated cAMP formation after 20 mins by HTRF assay. The format is functional, cell-based.
For assay [6], the target named is T2, Metabotropic glutamate receptor 3. Description: Antagonist activity at human mGlu3 receptor expressed in HEK cells assessed as reversal of DCG-4 inhibited forskolin-stimulated cAMP formation after 20 mins by HTRF assay. The format is functional, cell-based.

T1 sequence (Q14416 whole entry): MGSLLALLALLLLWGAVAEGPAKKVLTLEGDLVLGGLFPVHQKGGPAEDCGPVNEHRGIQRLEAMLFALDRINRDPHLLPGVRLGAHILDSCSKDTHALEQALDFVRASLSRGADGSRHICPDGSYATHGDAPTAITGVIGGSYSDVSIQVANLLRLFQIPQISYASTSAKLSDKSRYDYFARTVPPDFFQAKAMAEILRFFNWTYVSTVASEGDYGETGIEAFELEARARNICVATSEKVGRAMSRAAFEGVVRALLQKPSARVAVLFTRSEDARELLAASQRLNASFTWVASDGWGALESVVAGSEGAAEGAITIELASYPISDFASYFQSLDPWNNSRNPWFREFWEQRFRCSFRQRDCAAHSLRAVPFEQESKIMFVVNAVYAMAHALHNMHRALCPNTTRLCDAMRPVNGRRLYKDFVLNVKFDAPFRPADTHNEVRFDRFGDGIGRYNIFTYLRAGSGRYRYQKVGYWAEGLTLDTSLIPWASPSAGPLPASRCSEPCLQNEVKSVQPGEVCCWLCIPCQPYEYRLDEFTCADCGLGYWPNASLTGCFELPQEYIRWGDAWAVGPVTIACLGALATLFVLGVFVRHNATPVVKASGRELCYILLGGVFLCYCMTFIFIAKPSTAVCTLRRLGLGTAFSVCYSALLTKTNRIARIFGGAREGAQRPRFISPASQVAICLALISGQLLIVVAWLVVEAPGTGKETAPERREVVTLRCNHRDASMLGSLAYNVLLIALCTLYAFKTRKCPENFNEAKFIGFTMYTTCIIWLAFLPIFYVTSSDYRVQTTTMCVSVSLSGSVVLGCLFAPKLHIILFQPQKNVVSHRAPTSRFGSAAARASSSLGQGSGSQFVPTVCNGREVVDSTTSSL

`N[C@@]1(C(=O)O)C[C@H](NC(=O)c2ccc(O)cc2)[C@H]2[C@H](C(=O)O)[C@H]21`: the Ki was 54.7 nM in assay [1] and 9.34 nM in assay [4]. Also, the half-maximal effective concentration (EC50) in assay [2] worked out at 6.32 nM; in assay [3], 2.12 nM.
With `N[C@H]1C[C@@](N)(C(=O)O)[C@@H]2[C@@H](C(=O)O)[C@@H]21`, the Ki in assay [1] was 4410 nM; in assay [4] it was 284 nM.
Regarding `N[C@@]1(C(=O)O)C[C@H](NC(=O)CCc2ccccc2)[C@H]2[C@H](C(=O)O)[C@H]21`, the figures for the Ki in assay [1] and in assay [4] were 595 nM and 281 nM, respectively. Also, the EC50 in assay [2] was 893 nM; in assay [3], above 25000 nM. The IC50 in assay [5] amounted to 5.54 µM; in assay [6], 2.05 µM.
With `N[C@@]1(C(=O)O)C[C@H](NCc2ccccc2)[C@H]2[C@H](C(=O)O)[C@H]21`, the results for the Ki in assay [1] and in assay [4] were 11200 nM and 1070 nM, respectively. The 50% effective concentration (EC50) in assay [2] was 508 nM; in assay [3], 356 nM.
In the same order, the values of `N[C@@]1(C(=O)O)C[C@H](NC(=O)c2ccc(F)cc2)[C@H]2[C@H](C(=O)O)[C@H]21` are 330 nM, 4.34 nM, 19.1 nM and 6.6 nM.
`N[C@@]1(C(=O)O)C[C@H](NC(=O)c2cccc(F)c2)[C@H]2[C@H](C(=O)O)[C@H]21`: the values for the Ki in assay [1] and in assay [4] were 214 nM and 2.11 nM, respectively. Moreover, the EC50 came out at 18.1 nM in assay [2] and 2 nM in assay [3].
Turning to `CC(=O)N[C@H]1C[C@@](N)(C(=O)O)[C@@H]2[C@@H](C(=O)O)[C@@H]21`, the Ki in assay [1] stood at 898 nM; in assay [4] it was 177 nM.
In the case of `N[C@@]1(C(=O)O)C[C@H](NC(=O)c2cccc(O)c2)[C@H]2[C@H](C(=O)O)[C@H]21`, the results for the inhibition constant Ki in assay [1] and in assay [4] were 31.5 nM and 2.27 nM, respectively. The values for the EC50 in assay [2] and in assay [3] were 3.77 nM and 0.71 nM, respectively.
In the same order, the values of `N[C@@]1(C(=O)O)C[C@H](NC(=O)c2ccccc2Cl)[C@H]2[C@H](C(=O)O)[C@H]21` are 391 nM, 27.4 nM, 42.5 nM and 4.96 nM.
In the same order, the values of `COc1ccc(C(=O)N[C@H]2C[C@@](N)(C(=O)O)[C@@H]3[C@@H](C(=O)O)[C@@H]32)cc1` are 188 nM, 4.56 nM, 16 nM and 2.44 nM.
The like results for `N[C@@]1(C(=O)O)C[C@H](NC(=O)c2ccccc2O)[C@H]2[C@H](C(=O)O)[C@H]21` were, in that order, 58.2 nM, 1.79 nM, 7.44 nM and 0.17 nM.
As for `N[C@@]1(C(=O)O)C[C@H](NC(=O)c2ccccc2F)[C@H]2[C@H](C(=O)O)[C@H]21`, the Ki in assay [1] was found to be 218 nM; in assay [4], 5.79 nM. For the same molecule, the EC50 was found to be 17.1 nM in assay [2] and 5.1 nM in assay [3].
Consider `N[C@@]1(C(=O)O)C[C@H](NC(=O)c2ccc(Cl)cc2)[C@H]2[C@H](C(=O)O)[C@H]21`, for which the Ki stood at 137 nM in assay [1] and 2.29 nM in assay [4]. The EC50 in assay [2] was found to be 6.97 nM; in assay [3], 5.15 nM.
The like results for `N[C@@]1(C(=O)O)C[C@H](NC(=O)c2ccccc2)[C@H]2[C@H](C(=O)O)[C@H]21` were, in that order, 294 nM, 6.75 nM, 19.8 nM and 4.96 nM.
Turning to `N[C@@]1(C(=O)O)C[C@H](NC(=O)C2CCCCC2)[C@H]2[C@H](C(=O)O)[C@H]21`, the inhibition constant Ki came to 1520 nM in assay [1] and 757 nM in assay [4]. In addition, the half-maximal effective concentration (EC50) is 3390 nM in assay [2] and above 25000 nM in assay [3]. Also, the IC50 in assay [5] came to 12 µM; in assay [6] it was 9.99 µM.
As to `N[C@@]1(C(=O)O)C[C@H](NC(=O)c2cccc(Cl)c2)[C@H]2[C@H](C(=O)O)[C@H]21`, the results for the Ki in assay [1] and in assay [4] were 85.3 nM and 0.47 nM, respectively. For the same molecule, the EC50 in assay [2] stood at 8.37 nM; in assay [3], 0.82 nM.
Turning to `COc1ccccc1C(=O)N[C@H]1C[C@@](N)(C(=O)O)[C@@H]2[C@@H](C(=O)O)[C@@H]21`, the Ki in assay [1] is 151 nM; in assay [4], 23.2 nM. In addition, the values for the EC50 in assay [2] and in assay [3] were 26.5 nM and 7.15 nM, respectively.
